Data: patent publication US20020142944A1, “Treatment of ocular disorders” (Erasmus Universiteit Rotterdam, priority 1999, published 2002)

Legend:
[1] = system: bilateral cystoid macular edema; experiment: Treatment of cystoid macular edema, single patient; format: in vivo, human; conditions: for effect on the edema or visual acuity: previous therapy before octreotide, eye drops / peribulbar injections
Procedure: One year later, they noticed blurred vision. Their visual acuity was 20/50 in the right eye and 20/40 in the left eye (by Snellen chart). […] Their visual acuity slowly deteriorated in the subsequent years. […] They had no family history of macular edema. […] The injections were stopped four weeks later, because there was no further improvement.
Treatment with 100 μg or octreotide subcutaneously once daily was resumed. […] […] stopped treatment a second time; after four weeks […] visual acuity was 20/70 in the right eye and 20/50 in the left eye. Octreotide therapy was resumed, and four weeks later […] visual acuity was 20/40 in each eye.

[2] = system: refractory CME due to chronic uveitis; experiment: Octreotide treatment of 10 patients with refractory CME due to chronic uveitis, three months; format: in vivo, human
Procedure: Patients were treated in accordance to the declaration of Helsinki. In this study, 10 consecutive patients from the Department of Ophthalmology, Erasmus University Medical Center, and the Eye Hospital Rotterdam, were selected because of refractory CME due to chronic uveitis. Since CME in uveitis can be influenced in time by multiple factors, only patients suffering from macular edema for more than 6 months were included, regardless of their immune suppressive treatment. Six patients had bilateral CME and four patients unilateral. Three patients with pars planitis needed no treatment for their inflammation but still had marked CME. Fluorescein angiography was performed within one week before starting octreotide treatment. Octreotide therapy was given after informed consent had been obtained. Dosage was started with 100 μg subcutaneously, on the first day, two times 100 μg on the second day and three times 100 μg from the third day onwards. When possible, the long-acting repeatable (LAR) formulation was prescribed in a dosage of 20 mg per 4 weeks intramuscularly, which became available during the studies. The dose of patient 3, a child, was adjusted for their age to 10 mg per month (im). Immune suppressive treatment was adjusted as based on inflammatory activity. Visual acuity was measured after 2, 4, and 12 weeks of treatment. Fluorescein angiography was repeated after three months of treatment.

[3] = after eight weeks of 100 μg subcutaneously three times daily, before treatment 20/100 in each eye
[4] = four weeks after second stop of treatment
[5] = three months after resuming 100 μg subcutaneously once daily
[6] = within two weeks after first stop of injections
[7] = after three months of treatment
[8] = three months therapy, 10 patients

`CC(=O)Nc1nnc(S(N)(=O)=O)s1` [acetazolamide] was tested, and the “effect on the edema or visual acuity” value [1] was “without beneficial effect”.
In the case of `C[C@@H](O)[C@@H]1NC(=O)[C@H](CCCCN)NC(=O)[C@@H](Cc2c[nH]c3ccccc23)NC(=O)[C@H](Cc2ccccc2)NC(=O)[C@@H](NC(=O)[C@H](N)Cc2ccccc2)CSSC[C@@H](C(=O)N[C@H](CO)[C@@H](C)O)NC1=O` [octreotide], the “ophthalmoscopic finding, cystoid lesions” value ([1]; after eight weeks of 100 μg subcutaneously three times daily) is reported as “the cysts had dried”, the “visual acuity in the left eye (Snellen chart)” value [1, 3] is reported as 20/50 and the “visual acuity in the right eye (Snellen chart)” value [1, 3] is reported as 20/40. For the same compound, the “visual change noted by the patient” value ([1]; after six weeks of 100 μg subcutaneously three times daily) was “visual improvement”, the “visual acuity in each eye” value ([1]; four weeks after second resumption of therapy) was 20/40 and the “visual acuity in the left eye after stopping treatment” value [1, 4] was 20/50. The “visual acuity in the right eye after stopping treatment” value [1, 4] was 20/70, the fluorescein angiography finding [1, 5] was “some foveal fluorascein leakage” and the “visual acuity in each eye” value [1, 5] was 20/40. For the same compound, the “side effects from the treatment” value ([1]; whole course of treatment) was “no side effects”, the “ophthalmoscopic finding after stopping treatment” value [1, 6] was “some fluid was observed” and the “visual acuity in each eye after stopping treatment” value [1, 6] was 10/50. The “fluorescein angiographic macular edema clearly diminished” value [2, 7] was 3 eyes, the “fluorescein angiographic macular edema diminished but still visible” value [2, 7] was 9 eyes and the “fluorescein angiographic macular edema unaltered” value [2, 7] was 3 eyes. The ocular hypertension ([2]; at week 4, 10 patients) was “one”, the “diarrhoea (only side effect observed)” value ([2]; during the first days of treatment, 10 patients) was 4 patients and the “patients in whom visual acuity or inflammation activity deteriorated” value [2, 8] was “none”. The “patients with decreased inflammation, leading to tapered immunosuppressive therapy” value [2, 8] was “Four”, the “CME dissolved by stereoscopic examination” value ([2]; three months therapy, 10 patients, six bilateral and four unilateral CME) was 5 eyes and the “CME diminished by stereoscopic examination” value ([2]; three months therapy, further eyes beside those dissolved) was 11 eyes.
With `C[C@H]1C[C@H]2[C@@H]3CCC4=CC(=O)C=C[C@]4(C)[C@@]3(F)[C@@H](O)C[C@]2(C)[C@@]1(O)C(=O)CO` [betamehtasone, betamethasone] the “effect on the edema or visual acuity” value [1] was “without beneficial effect”.
With `CCOC(=O)[C@H](CCc1ccccc1)N[C@@H](C)C(=O)N1CCC[C@H]1C(=O)O` [enalapril] the “effect on the edema or visual acuity” value [1] was “without beneficial effect”.
In the case of `O=C(O)Cc1ccccc1Nc1c(Cl)cccc1Cl` [diclofenac], the “effect on the edema or visual acuity” value [1] is reported as “without beneficial effect”.
